Active and inactive are the calls of the source.

The target of one assay is Caspase-8 (Homo sapiens, UniProt Q14790). In words: caspase-8 inhibition counter-screen, dose response, selectivity assay for caspase-6 inhibitor project, biochemical, Z-IETD-R110 fluorescence, cherry-picked samples (AID 743294). On the technique in general: A counterscreen serves to expose hits that act by an unwanted route or on another target.
The target of assay [1] is T1, Sentrin-specific protease 6 (Homo sapiens, UniProt Q9GZR1).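 Further: Luminescence-based dose-response confirmatory assay of SENP6 inhibition, following up an ultra-high-throughput screen.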
T1 sequence (Q9GZR1 whole entry): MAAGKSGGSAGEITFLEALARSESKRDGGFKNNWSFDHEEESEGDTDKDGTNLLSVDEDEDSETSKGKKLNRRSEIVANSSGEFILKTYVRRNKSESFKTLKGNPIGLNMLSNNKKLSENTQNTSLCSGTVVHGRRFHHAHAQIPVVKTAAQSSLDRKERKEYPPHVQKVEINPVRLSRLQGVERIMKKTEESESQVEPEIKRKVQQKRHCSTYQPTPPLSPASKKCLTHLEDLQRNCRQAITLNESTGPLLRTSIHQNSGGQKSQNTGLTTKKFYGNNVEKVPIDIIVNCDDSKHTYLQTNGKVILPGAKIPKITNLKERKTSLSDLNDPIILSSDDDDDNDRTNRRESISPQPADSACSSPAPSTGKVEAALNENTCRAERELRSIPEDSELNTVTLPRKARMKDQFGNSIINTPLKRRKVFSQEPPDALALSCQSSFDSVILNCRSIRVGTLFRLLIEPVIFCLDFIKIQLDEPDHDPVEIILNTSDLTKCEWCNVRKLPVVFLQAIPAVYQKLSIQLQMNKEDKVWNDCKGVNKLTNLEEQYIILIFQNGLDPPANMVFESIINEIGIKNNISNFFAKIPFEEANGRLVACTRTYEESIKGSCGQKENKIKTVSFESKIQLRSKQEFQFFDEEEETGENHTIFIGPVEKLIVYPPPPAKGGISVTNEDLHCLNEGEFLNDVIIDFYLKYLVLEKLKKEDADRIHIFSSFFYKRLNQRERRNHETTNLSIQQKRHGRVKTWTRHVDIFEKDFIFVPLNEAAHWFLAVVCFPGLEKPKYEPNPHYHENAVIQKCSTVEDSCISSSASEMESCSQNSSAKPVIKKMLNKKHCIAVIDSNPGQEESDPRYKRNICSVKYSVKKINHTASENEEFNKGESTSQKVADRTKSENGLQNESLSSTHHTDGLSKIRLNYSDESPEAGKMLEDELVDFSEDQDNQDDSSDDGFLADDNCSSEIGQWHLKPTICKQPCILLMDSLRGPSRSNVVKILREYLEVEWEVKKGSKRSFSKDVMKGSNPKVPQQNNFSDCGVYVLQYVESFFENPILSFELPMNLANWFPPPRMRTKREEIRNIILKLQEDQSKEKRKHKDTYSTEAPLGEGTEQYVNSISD
The format is functional.

For the next assay, the target named is T2, Caspase-3 (Homo sapiens, UniProt P42574).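 Further: Dose-response selectivity test against caspase-3 for candidate inhibitors of sentrin-specific proteases (SENPs).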
T2 sequence (P42574 whole entry): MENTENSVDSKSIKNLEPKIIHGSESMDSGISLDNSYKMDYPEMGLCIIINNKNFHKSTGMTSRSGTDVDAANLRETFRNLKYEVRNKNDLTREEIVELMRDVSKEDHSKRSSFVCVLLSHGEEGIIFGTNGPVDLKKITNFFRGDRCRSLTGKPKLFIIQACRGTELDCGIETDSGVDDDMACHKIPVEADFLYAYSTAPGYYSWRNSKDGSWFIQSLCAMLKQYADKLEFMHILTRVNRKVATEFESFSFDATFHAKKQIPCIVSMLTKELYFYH
The format is functional.

In assay [2] the target is T3, Endoribonuclease toxin MazF (Escherichia coli K-12, UniProt P0AE70).
T3 sequence (P0AE70 whole entry): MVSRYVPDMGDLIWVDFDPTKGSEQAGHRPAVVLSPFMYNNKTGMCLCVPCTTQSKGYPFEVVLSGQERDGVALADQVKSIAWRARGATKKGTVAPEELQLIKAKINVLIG
In words: fluorescent RNA oligo signal without MazF, dose response, counter-screen for MazEF activator project, biochemical, fluorescence, single-stranded RNase substrate (AID 588502). The format is functional.

The next assay is described as follows: cells. Particulars: HEK-CNG. The format is functional, cell-based.
The nature of assay [3]: inhibitors of SNCA 5'UTR-driven reporter translation, confirmation, H4 neuroglioma cells, luminescence (AID 1988). The assay is classed as functional, cell-based.
For assay [4], the target named is T4, Tyrosine-protein phosphatase non-receptor type 22 (Homo sapiens, UniProt Q9Y2R2).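 Further: confirmatory dose-response retesting of primary uHTS hits against LYP; potency is for inhibition of phosphatase activity.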
T4 sequence (Q9Y2R2 whole entry): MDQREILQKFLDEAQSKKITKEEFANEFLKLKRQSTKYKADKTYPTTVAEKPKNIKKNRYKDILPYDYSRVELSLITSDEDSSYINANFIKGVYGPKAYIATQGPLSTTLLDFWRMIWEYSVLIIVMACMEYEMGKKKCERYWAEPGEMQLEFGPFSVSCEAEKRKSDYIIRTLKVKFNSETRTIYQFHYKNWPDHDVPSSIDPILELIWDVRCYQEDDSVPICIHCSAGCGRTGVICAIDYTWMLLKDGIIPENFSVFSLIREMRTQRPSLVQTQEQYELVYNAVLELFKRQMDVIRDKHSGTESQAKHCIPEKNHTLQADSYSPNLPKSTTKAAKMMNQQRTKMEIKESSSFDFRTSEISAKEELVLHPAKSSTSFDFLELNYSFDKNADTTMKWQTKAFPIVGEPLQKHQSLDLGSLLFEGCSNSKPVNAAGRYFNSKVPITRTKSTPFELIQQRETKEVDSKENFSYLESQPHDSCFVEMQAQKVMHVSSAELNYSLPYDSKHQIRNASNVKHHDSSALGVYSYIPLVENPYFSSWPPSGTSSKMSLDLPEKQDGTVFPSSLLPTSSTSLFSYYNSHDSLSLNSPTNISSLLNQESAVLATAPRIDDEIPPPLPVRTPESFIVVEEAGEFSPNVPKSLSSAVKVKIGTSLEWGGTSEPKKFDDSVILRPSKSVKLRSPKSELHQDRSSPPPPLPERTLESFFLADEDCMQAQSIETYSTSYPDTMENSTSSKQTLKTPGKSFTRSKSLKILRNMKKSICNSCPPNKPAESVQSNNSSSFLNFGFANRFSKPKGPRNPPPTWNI
The assay is classed as functional.

In the next assay the test system is Streptococcus. In words: Group A Streptococcus viability loss, dose response, counter-screen for streptokinase expression inhibitor project, luminescence, BacTiterGlo (AID 1915).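 Further: potency for reduction of bacterial viability or growth.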 The assay is classed as functional, organism-based.
In assay [5] the target is Lysine-specific demethylase 4C (Homo sapiens, UniProt Q9H3R0). In words: GASC-1 (JMJD2C) histone demethylase inhibitors, dose response, biochemical, DELFIA europium, cherry-picked samples (AID 488835). The assay is classed as functional.
Sequence of Lysine-specific demethylase 4C (Q9H3R0 whole entry): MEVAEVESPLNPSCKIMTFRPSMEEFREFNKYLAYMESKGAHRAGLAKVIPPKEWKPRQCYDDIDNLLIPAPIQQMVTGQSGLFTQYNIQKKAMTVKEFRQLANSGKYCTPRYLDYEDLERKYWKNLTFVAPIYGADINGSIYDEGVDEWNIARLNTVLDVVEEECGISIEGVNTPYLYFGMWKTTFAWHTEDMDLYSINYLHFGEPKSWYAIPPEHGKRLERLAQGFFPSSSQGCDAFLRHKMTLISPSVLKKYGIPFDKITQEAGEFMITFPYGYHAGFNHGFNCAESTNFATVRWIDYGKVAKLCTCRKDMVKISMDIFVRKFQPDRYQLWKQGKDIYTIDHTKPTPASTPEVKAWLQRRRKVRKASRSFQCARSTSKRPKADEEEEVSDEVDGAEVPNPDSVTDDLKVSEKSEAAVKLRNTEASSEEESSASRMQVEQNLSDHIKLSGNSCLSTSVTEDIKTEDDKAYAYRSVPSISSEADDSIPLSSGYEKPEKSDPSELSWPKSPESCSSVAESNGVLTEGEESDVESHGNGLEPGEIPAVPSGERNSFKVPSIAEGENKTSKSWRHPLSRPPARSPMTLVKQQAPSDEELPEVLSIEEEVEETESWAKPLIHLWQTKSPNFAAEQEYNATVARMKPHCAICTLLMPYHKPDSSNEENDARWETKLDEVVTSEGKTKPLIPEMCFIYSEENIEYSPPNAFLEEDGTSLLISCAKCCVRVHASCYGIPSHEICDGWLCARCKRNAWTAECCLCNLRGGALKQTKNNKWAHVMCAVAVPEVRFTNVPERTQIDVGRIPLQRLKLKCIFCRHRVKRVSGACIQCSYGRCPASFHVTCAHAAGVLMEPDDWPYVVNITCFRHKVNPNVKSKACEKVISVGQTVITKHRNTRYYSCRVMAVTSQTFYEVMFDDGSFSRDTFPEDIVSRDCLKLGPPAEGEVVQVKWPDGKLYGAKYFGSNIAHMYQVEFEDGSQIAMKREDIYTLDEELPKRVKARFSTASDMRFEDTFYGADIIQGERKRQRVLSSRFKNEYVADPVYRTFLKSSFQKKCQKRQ
Assay [6] deals with Transitional endoplasmic reticulum ATPase (Homo sapiens, UniProt P55072). Nature of the assay: p97 ATPase inhibitors, dose response, biochemical (AID 1534).
Sequence of Transitional endoplasmic reticulum ATPase (P55072 whole entry): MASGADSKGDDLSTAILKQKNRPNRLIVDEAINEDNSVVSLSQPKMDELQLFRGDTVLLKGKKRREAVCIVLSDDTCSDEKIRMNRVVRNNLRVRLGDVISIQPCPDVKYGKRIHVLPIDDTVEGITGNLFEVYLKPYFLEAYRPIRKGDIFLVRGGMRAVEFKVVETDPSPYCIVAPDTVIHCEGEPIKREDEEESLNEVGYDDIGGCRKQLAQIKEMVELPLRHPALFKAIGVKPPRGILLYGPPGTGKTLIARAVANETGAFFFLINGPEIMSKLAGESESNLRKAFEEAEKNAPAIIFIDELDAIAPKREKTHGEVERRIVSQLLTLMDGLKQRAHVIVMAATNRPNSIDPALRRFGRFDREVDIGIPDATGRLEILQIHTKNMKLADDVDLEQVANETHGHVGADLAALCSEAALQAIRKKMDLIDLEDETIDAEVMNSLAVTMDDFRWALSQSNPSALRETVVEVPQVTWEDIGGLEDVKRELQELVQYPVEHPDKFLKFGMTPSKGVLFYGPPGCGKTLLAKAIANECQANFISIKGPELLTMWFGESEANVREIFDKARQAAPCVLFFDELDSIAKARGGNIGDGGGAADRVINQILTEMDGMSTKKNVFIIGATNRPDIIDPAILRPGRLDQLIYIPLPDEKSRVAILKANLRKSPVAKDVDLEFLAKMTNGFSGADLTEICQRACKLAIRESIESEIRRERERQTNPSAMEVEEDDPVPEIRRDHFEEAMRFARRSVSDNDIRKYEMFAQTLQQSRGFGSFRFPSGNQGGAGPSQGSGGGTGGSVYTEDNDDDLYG

Sequence of Caspase-8 (Q14790 217-374 limits assumed): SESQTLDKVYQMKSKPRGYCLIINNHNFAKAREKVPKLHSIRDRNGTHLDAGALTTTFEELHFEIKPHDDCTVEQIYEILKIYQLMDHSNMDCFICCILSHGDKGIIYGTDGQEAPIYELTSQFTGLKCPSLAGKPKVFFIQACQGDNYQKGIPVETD
Sequence of Caspase-8 (Q14790 385-479 limits assumed): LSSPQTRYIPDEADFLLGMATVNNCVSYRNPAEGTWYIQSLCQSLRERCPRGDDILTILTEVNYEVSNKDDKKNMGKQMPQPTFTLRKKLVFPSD

Broadly, the AC50 is the concentration at which the activity in the assay is half-maximal. A word on the IC50: it is the concentration that gives 50% inhibition. Regarding `Oc1nc(Nc2ccccc2Cl)cc2ccccc12`, on Caspase-8, the AC50 is 13.4 µM (active). For the same compound, the IC50 in [1] is 3.14 µM (active); at Caspase-3 it was 4.42 µM (active).

Usually EC50 stands for the concentration that produces a half-maximal response. `O=C1C=C(c2c(O)ccc3ccccc23)c2ccccc2C1=O`: the EC50 is > 99 µM (inactive) in [2] and > 29.9 µM (inactive) in “cells”.

In the case of `Cc1nc2c(=O)n(C)c(=O)nc-2n(C)n1`, the EC50 in [3] is 0.136 µM (active); with Streptococcus, 9.31 µM (active). In addition, the 50% inhibitory concentration (IC50) in assay [4] is < 1.24 µM (active); in assay [6], > 50 µM (not active). Moreover, in [5], the AC50 is 0.425 µM (active).

(Values after ChEMBL document CHEMBL1201862, “PubChem BioAssay data set” (2004).)
